{"source": "patent US6492344B1", "about": "“Syndecan enhancer element and syndecan stimulation of cellular differentiation” (Biotie Therapies Corp., priority 1993, dated 2002)", "key": {"MCA3D cells": {"test_system": "MCA3D cells", "experiment": "Cell proliferation of MCA3D keratinocytes", "assay_type": "cell-based", "settings": "MCA3D mouse keratinocytes"}, "3T3NIH cells": {"test_system": "3T3NIH cells", "experiment": "125-IdU incorporation (DNA synthesis) assay in 3T3NIH cells", "assay_type": "cell-based, mouse", "settings": "pFiRE transfected 3T3NIH cells; 10 ng/ml growth factor (2 ng/ml TGF-β) or 5% FCS", "from_the_text": "Effect of Various Growth Factors on Enhancer Activation in NIH3T3 Cells. Plasmid pFiRE was transfected into 3T3NIH cells as described, supra. The cells were starved in DMEM medium supplemented with 5% fetal calf serum to about 70% confluence. Fetal calf serum was then replaced with 2% carboxy-methyl-Sephadex eluted fetal calf serum (CMS) 12 hrs before adding the growth factors. Various growth factors in the same medium, 5% fetal calf serum (FCS) supplemented medium or a control containing the medium, without any added growth factors were incubated with the transfected cells for 2 days, and CAT activity was measured. The effect of 10 ng/ml of FGF-2, FGF-1, FGF-4, FGF-7 (KGF), EGF, IGF1, TGFα, IFNγ, and PDGF and 2 ng/ml TGF-β were tested. The human recombinant growth factors were purchased from Peprotech (FGF-1, -2, and -7), Boehringer (FGF-2) or from Calbiochem (PDGF) TGF-β was purchased from Sigma. The effect of the added growth factors and FCS on DNA synthesis was also tested by a 125-IdU incorporation assay. This cell proliferation assay was carried out by incubating cells for 4-6 hrs with 0.25 μCi/ml 5-[^125I]iodo-2′-deoxyuridine (IdU, Amersham), washed several times with PBS and solubilized in 1 M NaOH. Radioactivity was measured using a gamma counter (Wallac)."}, "[1]": {"test_system": "syndecan-1 enhancer element (pXb6)", "experiment": "CAT reporter assay of syndecan upstream fragment pXb6 in 3T3 NIH cells", "assay_type": "cell-based, mouse", "settings": "3T3NIH cells transiently transfected; FGF-2 alone", "from_the_text": "Determination of Mouse Syndecan Promoter and Enhancer Activities. The mouse syndecan-1 gene has been cloned and characterized up to −10 kbs upstream from the transcription start site. To determine the specific activities of different proximal promoter regions (up to −2 kbs from the start site) and enhancer regions (from −2 to −10 kbs) we have made plasmid constructs in which these regions were cloned into pCAT basic or pCAT promoter vectors, containing the CAT reporter gene. The reporter CAT gene produces the enzyme chloramphenicol acetyltransferase, which transfers the n-butyryl moiety of n-butyryl CoA to chloramphenicol. […]\nThe plasmid constructs were transiently transfected into eukaryotic cells by calcium phosphate precipitation simultaneously with a β-Galactosidase expressing vector to determine transfection efficiency. […] This was incubated from 2 hours to overnight and the color reaction was measured spectrophotometrically at 420 nm.\nCAT activity was determined by adding 0.25 M Tris buffer, 25 ng n-butyryl CoA and 0.0626 μCi of ^14C-chloramphenicol to the cytoplasmic extract. Samples were incubated overnight, extracted with xylene and the radioactivity present was measured by scintillation counting. CAT activity was corrected for transfection efficiency as determined by assays of β-galactosidase activity. […]"}}, "data": [{"substance": "FGF-2: Basic fibroblast growth factor (FGF-2 or bFGF); recombinant human", "values": [{"measurement": "cell proliferation", "setting": "MCA3D cells", "value": "stimulated cell proliferation"}, {"measurement": "DNA synthesis / cell proliferation (125-IdU incorporation)", "setting": "3T3NIH cells", "value": "significant increase in DNA synthesis"}, {"measurement": "CAT gene expression from plasmid pXb6", "setting": "[1]", "value": "increase in CAT gene expression"}]}]}
